The values that follow come from patent US20220304998A1, “REBAMIPIDE FOR USE IN PREVENTION AND TREATMENT OF CROHN'S DISEASE” (SQUARE POWER LTD., priority 2019, published 2022).

The test system of data set [1] is patients suffering from Crohn's disease. Put plainly: Clinical course, response and tolerability in Crohn's disease patient case reports. In kind it is in vivo, human. Particulars: for adverse reaction: affecting skin and joints. From the text: (§1) Several patients suffering from Crohn's disease for at least 5 years without sufficient response to standard treatment were given rebamipide tablets three times a day. […] The severity of the disease was quantified by the CDAI, and the level of inflammation by fecal calprotectin.

Data set [2] relates to Calprotectin (FC). Put plainly: Fecal calprotectin in stool samples by ELISA kit (EK-CAL, Bühlmann). In kind it is in vivo, human. As to conditions: for fecal calprotectin level: Example 1; for calprotectin: Example 2.
From the text: as §1
Calprotectin (FC) is a small calcium-binding protein that is used as a biomarker for inflammatory bowel diseases since its fecal concentration correlates well with the disease severity. Calprotectin values lower than 200 μg/g feces are considered the normal level. It was measured in stool samples using commercially available enzyme-linked immunosorbent assay (ELISA) kit (EK-CAL, Bühlmann).
A general note: ELISA stands for enzyme-linked immunosorbent assay.

The conditions of data set [3]: oral administration; cited from earlier work.
Data set [4] has as its system patients suffering from Crohn's disease. Description: Crohn's Disease Activity Index (CDAI) in Crohn's disease patients given rebamipide tablets. It is filed as in vivo, human.
From the text: as §1
Crohn's Disease Activity Index (CDAI) is a research tool used to quantify the symptoms of patients with Crohn's disease. It consists of eight factors, each summed after adjustment with a weighting factor. Remission of Crohn's disease is defined as CDAI below 150, whereas severe disease is defined as a value of greater than 450.

The mark [5] stands for this setting: summary of patient sample, add-on to corticosteroid.

As for `C[C@]12C=CC(=O)C=C1CC[C@@H]1[C@@H]2C(=O)C[C@@]2(C)[C@H]1CC[C@]2(O)C(=O)CO` [prednisone], the “treatment outcome of corticosteroid alone after relapse” value in data set [1] (Example 2, prednisone 40 mg/day before rebamipide) is reported as “not able to reach remission”.
Take `Cn1cnc([N+](=O)[O-])c1Sc1ncnc2nc[nH]c12` [azathioprine]: in data set [1] (Example 3, discontinued after two weeks), the “adverse reaction leading to discontinuation” value was “acute pancreatitis”.
Take `O=C(NC(Cc1cc(=O)[nH]c2ccccc12)C(=O)O)c1ccc(Cl)cc1` (stereo not shown) [rebamipide, 2-[(4-chlorobenzoyl)amino]-3-(2-oxo-1H-quinolin-4-yl)propanoic acid]: the fecal calprotectin level in data set [2] (after another 6 weeks, corticosteroid dose reduced to half, rebamipide 100 mg three times daily) was 63 µg/g; in data set [2] (rebamipide 100 mg three times daily with methylprednisolon 24 mg/day, after 6 weeks, relapse value up to 1939), 228 µg/g. For the same molecule, the calprotectin in data set [2] (after another 6 weeks, rebamipide 100 mg t.i.d., prednisone tapered from 30 mg/day by 10 mg every 2 weeks) is 110 µg/g; in data set [2] (rebamipide 200 mg t.i.d. add-on to prednisone 40 mg/day, after 6 weeks, relapse value 2215) it was 356 µg/g. In data set [2] (Example 3, rebamipide 100 mg three times daily with prednisone 50 mg/day, 25 mg after 14 days, after another 6 weeks, initial value up to 1051), this molecule had a calprotectin level of 122 µg/g. In addition, the “effect on calprotectin levels” value in data set [2] (setting [5]) was “normalize calprotectin levels”. For the same molecule, the “disease activity on rebamipide only after corticosteroid withdrawal” value in data set [1] (Example 1, patient continued only rebamipide) was “No worsening in disease activity”. Also, in data set [1] (Example 2, patient continued only rebamipide 100 mg t.i.d.), the “disease activity on rebamipide only after prednisone discontinuation” value was “No worsening in disease activity”. In addition, the clinical symptoms entry in data set [1] (Example 3, after 14 days of rebamipide 100 mg three times daily with prednisone 50 mg/day) is reported as “alleviation of the clinical symptoms”. In addition, in data set [1] (Example 3, patient continued only rebamipide), the “disease activity on rebamipide only after prednisone withdrawal” value is given as “No worsening in disease activity”. Also, the maintenance of remission entry in data set [1] (rebamipide alone, long-term) is reported as “able to maintain remission”. Further, in data set [1] (rebamipide alone, long-term), the “tolerability of long-term therapy” value is recorded as “well tolerated”. In data set [1] (setting [5]), the “remission in patients who exhausted standard treatment options” value is reported as “induce remission”. Also, the “absorption in the GI tract” value in data set [3] is listed as “poorly absorbed”. Also, the CDAI in data set [4] (Example 1, person, Crohn's ileocolitis, rebamipide 100 mg three times daily with methylprednisolon 24 mg/day, after 6 weeks, relapse value 358) is 181 points; in data set [4] (Example 1, after another 6 weeks, corticosteroid dose reduced to half, rebamipide 100 mg three times daily), 73 points; in data set [4] (Example 2, person, Crohn's ileocolitis, rebamipide 200 mg t.i.d. add-on to prednisone 40 mg/day, after 6 weeks, relapse value 479), 225 points; in data set [4] (Example 2, after another 6 weeks, rebamipide 100 mg t.i.d., prednisone tapered from 30 mg/day by 10 mg every 2 weeks) it was 84 points; in data set [4] (Example 3, person, Crohn's ileitis, rebamipide 100 mg three times daily with prednisone 50 mg/day, 25 mg after 14 days, after another 6 weeks, initial value 377) it was 98 points.
Regarding “infliximab: monoclonal antibody against TNFα”, the adverse reaction result in data set [1] (Example 1) is reported as “immunological response had developed”.
Still for that read-out and setting: next, adalimumab: “immunological response had developed”.
Consider `CCCC1O[C@@H]2C[C@H]3[C@@H]4CCC5=CC(=O)C=C[C@]5(C)[C@H]4[C@@H](O)C[C@]3(C)[C@]2(C(=O)CO)O1` (stereo partly shown) [budesonide], for which the “duration of maintained remission” value in data set [1] (Example 3, therapy with budesonide and mesalazine) is given as “about 10 years”.
As to `C[C@H]1C[C@@H]2[C@H]([C@@H](O)C[C@@]3(C)[C@H]2CC[C@]3(O)C(=O)CO)[C@@]2(C)C=CC(=O)C=C12` [methylprednisolon], the “treatment outcome of corticosteroid alone after relapse” value in data set [1] (Example 1, methylprednisolon 24 mg/day before rebamipide) is on record as “without success”.
